Measured values: PubChem BioAssay AID179 (DTP/NCI, 2004)
Activity calls are given as the source filed them.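 The calls were made as follows: active = compounds giving half or more protection of infected cells from virus-caused growth loss, again on retest; inactive = the rest.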 Where a SMILES comes first, the peptide text is derived from it.

Test system: CEM cells HIV-1 protection, formazan growth assay
Experiment: NCI AIDS Antiviral Assay
Settings: for IC50: measured here: growth of uninfected CEM cells
In short: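 Human CEM cells, uninfected and HIV-1-infected, received five drug concentrations, and growth was read by soluble formazan assay. Compounds giving at least 50% protection were retested; reproducible 100% protection defined confirmed active.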

Row | SMILES | EC50 [µM] | IC50 [µM] | outcome
1 | O=[N+]([O-])c1ccccc1C1N2CCCCC2[C@@H]2c3[nH]c4ccccc4c3CCN12 (stereo partly drawn) | > 18.6 | > 18.6 | –
2 | CN1C(=O)C(C(C)(C)C2SC(=S)N(C)C2=O)SC1=S (stereo not drawn) | > 200 | > 200 | –
3 | COC(=O)C(CCS(=O)(=O)CC(=O)C(=O)Nc1cccc(C(C)=O)c1)C(=O)OC | – | – | inactive
4 | O=[N+]([O-])c1ccc(Cl)cc1C=NC12CC3CC(CC(C3)C1)C2 | > 200 | 11.5 | –
5 | O=c1c2cccnc2ncn1CCCN1CCCCC1 | – | – | inactive
6 | Nc1ccc(-c2cc(C(=O)Nc3nccs3)[nH]c(=S)n2)cc1 | > 759 | 407 | –
7 | Cc1ccccc1NC(=O)C1C(=O)N(c2ccccc2C)C(=O)/C1=N\NC(N)=O (stereo not drawn) | > 13.2 | > 13.2 | –
8 | COc1ccc2c[n+](C)c3c4cc(OC)c(OC)cc4ccc3c2c1 | – | – | inactive
9 | Oc1c2cc(Br)cc1CCc1cc(Br)cc(c1O)CC2 | > 200 | 25.7 | –
10 | O=C(N/N=C\c1ccccc1)c1ccccc1Nc1ccccc1C(=O)N/N=C/c1ccccc1 | 26.9 | > 200 | –
11 | CSc1nnc(SCc2nn3c(=O)cc(C)nc3s2)s1 | > 200 | > 200 | –
12 | O=C(Nc1ccc(C2=NCCN2)cc1)c1ccc(F)c(C(=O)Nc2ccc(C3=NCCN3)cc2)c1 | > 200 | > 200 | –
13 | C[Si](C)(C)C1(Sc2ccccc2)SCCCS1 | – | – | inactive
14 | Cc1ccnc2c1C(=O)C(=O)C=C2N(C)C | – | – | inactive
15 | CC(C)CC(NC(=O)C(O)C(N)Cc1ccccc1)C(=O)O (stereo not drawn) | > 17 | > 17 | –
16 | CSCCC(NOC(=O)Cc1ccccc1)P(=O)(O)c1ccccc1 (stereo not drawn) | 195 | 240 | –
17 | CC(NC(=O)CNC(=O)C(N)CO)C(=O)NC(CCC(N)=O)C(=O)NC(CCCCN)C(=O)N1CCCC1C(=O)NC(CCC(=O)O)C(=O)NC(CCC(=O)O)C(=O)NC(CCC(=O)O)C(=O)NC(CO)C(=O)NC(CO)C(=O)NC(CC(N)=O)C(=O)NC(C)C(=O)NC(Cc1cnc[nH]1)C(=O)NC(CO)C(=O)O (stereo not drawn) (H-SGAQKPEEESSNAHS-OH; configuration not given here) | > 100 | > 100 | –

Row | SMILES | EC50 [µM] | IC50 [µM] | outcome
18 | CCOc1ccc(C2=C(Cl)c3cc(OC)c(OC)cc3C2Cl)cc1 (stereo not drawn) | – | – | inactive
19 | Cc1ccc(S(=O)(=O)N(CCNC(=O)c2cccc(O)c2O)c2cc3c4c(c2)Oc2cccc5c2C4(C)c2c(cccc2O3)O5)cc1 | > 200 | 10.7 | –
20 | C1=CC2CCC1CN2CCC1CNc2ccccc21 (stereo not drawn) | – | – | inactive
21 | CCOC(=O)C1([Se]c2ccccc2)CCCC1=O (stereo not drawn) | > 219 | 20.4 | –
22 | c1cc2cc3c4c5c(cc6ccc7cc8cc9c%10c8c8c7c6c5c8c5c%10c(c1C9N1CCOCCOCCOCCOCCOCC1)c2c45)C3 (stereo not drawn) | > 100 | > 100 | –
23 | CCOC(=O)CN(c1sc(C)c(CC)c1C(=O)OCC)S(=O)(=O)c1ccc(C)cc1 | > 200 | 10.2 | –
24 | CCO[C@@H]1OC(=O)[C@H]2C(c3ccc(Cl)cc3)=NO[C@@H]12 | > 35.5 | > 35.5 | –
25 | COc1cc(/C=C2/SC(c3ccccc3)N(c3cccc(NC(C)=O)c3)C2=O)cc(OC)c1OC (stereo not drawn) | > 200 | 53.7 | –
26 | CN(C)CCCn1cnc2ncccc2c1=O | – | – | inactive
27 | Cc1c(O)c2ccccc2c2c1sc(NCCCN(CCO)CCO)[n+]2C | > 200 | 11.2 | –
28 | CCOC(=O)/C(C#N)=C(O)/C(=C/c1ccccc1Cl)NC(=O)c1ccccc1 | > 631 | > 631 | –
29 | CN(C)c1ccc(/C=C(\C#N)c2ccccc2)cc1 | > 5.89 | – | –
30 | CCC(C)c1c(NC(C)=O)o[nH]c1=O (stereo not drawn) | > 200 | > 200 | –
31 | CC(C)(C)C(=O)OCC1CCC[N+]2(C)CCCCC12 (stereo not drawn) | > 200 | > 200 | –
32 | Nc1ccc2nc(Nc3ccc(Cl)c(Cl)c3)cnc2c1 | > 23.4 | > 23.4 | –
33 | Cc1c(OCc2cccc3ccccc23)ccc2c(=O)cc(SCCN3CCOCC3)oc12 | – | – | inactive
34 | CCOC(=O)c1cc2c(nc1NCc1ccccc1)C(=O)CCCC2 | > 200 | 19.1 | –
